Source: patent US9242958B2, “Substituted pyridazine carboxamide compounds as kinase inhibitor compounds” (Xcovery Holding Company LLC, priority 2010, dated 2016)
Marks after values point to notes of the source that are not given here.

Assays:
[1] = biological target: T1, ALK (Homo sapiens, UniProt Q9UM73); assay: Kinase binding assay (ALK biochemical assay, affinity beads/qPCR)
T1 construct: T7 phage fusion (kinase-tagged T7 phage), or alternatively a DNA tag for qPCR; made in house; host or cells: E. coli BL21-derived host (T7 phage display) or HEK-293 cells
T1 sequence (Q9UM73 19-1620): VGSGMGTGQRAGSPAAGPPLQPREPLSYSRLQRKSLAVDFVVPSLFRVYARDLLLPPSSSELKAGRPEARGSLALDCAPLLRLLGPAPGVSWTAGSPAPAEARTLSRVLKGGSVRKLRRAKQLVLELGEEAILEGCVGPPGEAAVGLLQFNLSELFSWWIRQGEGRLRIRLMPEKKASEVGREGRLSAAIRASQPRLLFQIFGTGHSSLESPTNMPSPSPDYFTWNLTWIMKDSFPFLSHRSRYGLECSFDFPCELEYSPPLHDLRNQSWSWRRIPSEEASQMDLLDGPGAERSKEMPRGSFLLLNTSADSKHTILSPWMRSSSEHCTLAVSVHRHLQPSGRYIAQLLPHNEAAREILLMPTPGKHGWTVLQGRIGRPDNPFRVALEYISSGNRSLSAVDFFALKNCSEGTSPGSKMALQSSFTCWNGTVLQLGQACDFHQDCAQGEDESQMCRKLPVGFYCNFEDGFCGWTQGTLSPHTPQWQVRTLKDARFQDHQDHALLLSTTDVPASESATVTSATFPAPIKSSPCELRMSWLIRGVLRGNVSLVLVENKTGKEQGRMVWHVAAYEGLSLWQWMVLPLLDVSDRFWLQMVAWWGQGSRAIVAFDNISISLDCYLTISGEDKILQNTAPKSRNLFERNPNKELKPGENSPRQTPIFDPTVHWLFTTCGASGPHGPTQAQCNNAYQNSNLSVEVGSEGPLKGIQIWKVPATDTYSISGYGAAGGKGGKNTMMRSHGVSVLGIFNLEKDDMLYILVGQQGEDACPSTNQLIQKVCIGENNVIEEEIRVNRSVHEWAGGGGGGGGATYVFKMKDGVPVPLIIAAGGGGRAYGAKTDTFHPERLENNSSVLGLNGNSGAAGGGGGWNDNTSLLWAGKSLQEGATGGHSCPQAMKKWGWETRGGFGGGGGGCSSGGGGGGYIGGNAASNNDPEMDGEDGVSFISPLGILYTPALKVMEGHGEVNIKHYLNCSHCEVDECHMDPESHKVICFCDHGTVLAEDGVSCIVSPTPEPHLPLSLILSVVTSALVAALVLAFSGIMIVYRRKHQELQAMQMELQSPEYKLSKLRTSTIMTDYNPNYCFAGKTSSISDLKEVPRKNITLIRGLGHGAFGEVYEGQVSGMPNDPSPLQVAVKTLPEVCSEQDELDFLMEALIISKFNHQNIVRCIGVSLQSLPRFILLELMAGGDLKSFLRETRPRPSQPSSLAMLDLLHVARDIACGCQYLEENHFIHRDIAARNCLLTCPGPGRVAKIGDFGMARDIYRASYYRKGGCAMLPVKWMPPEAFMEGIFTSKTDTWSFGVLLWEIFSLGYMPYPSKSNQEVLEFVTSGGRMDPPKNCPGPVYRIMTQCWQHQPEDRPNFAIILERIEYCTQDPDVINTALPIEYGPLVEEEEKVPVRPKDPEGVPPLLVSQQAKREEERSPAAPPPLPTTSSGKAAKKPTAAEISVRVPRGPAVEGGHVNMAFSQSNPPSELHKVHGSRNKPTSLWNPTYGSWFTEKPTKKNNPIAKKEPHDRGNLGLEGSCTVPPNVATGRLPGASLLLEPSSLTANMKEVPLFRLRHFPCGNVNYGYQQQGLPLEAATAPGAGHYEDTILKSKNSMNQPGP
Description: (§1) Met, ALK Biochemical Assays
(§2) Kinase Assays. […] 23, p. […] 26, p.
(§3) For most assays, kinase-tagged T7 phage strains were grown in parallel in 24-well blocks in an E. coli host derived from the BL21 strain. E. coli were grown to log-phase and infected with T7 phage from a frozen stock (multiplicity of infection ˜0.1) and incubated with shaking at 32° C. until lysis (˜90 minutes). The lysates were centrifuged (6,000×g) and filtered ([…]) to remove cell debris. The remaining kinases were produced in HEK-293 cells and subsequently tagged with DNA for qPCR detection. […] The liganded beads were blocked with excess biotin and washed with blocking buffer (SeaBlock (Pierce), 1% BSA, 0.05% Tween 20, 1 mM DTT) to remove unbound ligand and to reduce non-specific phage binding. […] Test compounds were prepared as 40× stocks in 100% DMSO and directly diluted into the assay. All reactions were performed in polypropylene 384-well plates in a final volume of 0.04 ml. […] The kinase concentration in the eluates was measured by qPCR.

[2] = biological target: T2, c-Met (Homo sapiens, UniProt P08581); assay: Kinase binding assay (Met biochemical assay, affinity beads/qPCR)
T2 construct: T7 phage fusion (kinase-tagged T7 phage), or alternatively a DNA tag for qPCR; made in house; host or cells: E. coli BL21-derived host (T7 phage display) or HEK-293 cells
T2 sequence (P08581 25-1390): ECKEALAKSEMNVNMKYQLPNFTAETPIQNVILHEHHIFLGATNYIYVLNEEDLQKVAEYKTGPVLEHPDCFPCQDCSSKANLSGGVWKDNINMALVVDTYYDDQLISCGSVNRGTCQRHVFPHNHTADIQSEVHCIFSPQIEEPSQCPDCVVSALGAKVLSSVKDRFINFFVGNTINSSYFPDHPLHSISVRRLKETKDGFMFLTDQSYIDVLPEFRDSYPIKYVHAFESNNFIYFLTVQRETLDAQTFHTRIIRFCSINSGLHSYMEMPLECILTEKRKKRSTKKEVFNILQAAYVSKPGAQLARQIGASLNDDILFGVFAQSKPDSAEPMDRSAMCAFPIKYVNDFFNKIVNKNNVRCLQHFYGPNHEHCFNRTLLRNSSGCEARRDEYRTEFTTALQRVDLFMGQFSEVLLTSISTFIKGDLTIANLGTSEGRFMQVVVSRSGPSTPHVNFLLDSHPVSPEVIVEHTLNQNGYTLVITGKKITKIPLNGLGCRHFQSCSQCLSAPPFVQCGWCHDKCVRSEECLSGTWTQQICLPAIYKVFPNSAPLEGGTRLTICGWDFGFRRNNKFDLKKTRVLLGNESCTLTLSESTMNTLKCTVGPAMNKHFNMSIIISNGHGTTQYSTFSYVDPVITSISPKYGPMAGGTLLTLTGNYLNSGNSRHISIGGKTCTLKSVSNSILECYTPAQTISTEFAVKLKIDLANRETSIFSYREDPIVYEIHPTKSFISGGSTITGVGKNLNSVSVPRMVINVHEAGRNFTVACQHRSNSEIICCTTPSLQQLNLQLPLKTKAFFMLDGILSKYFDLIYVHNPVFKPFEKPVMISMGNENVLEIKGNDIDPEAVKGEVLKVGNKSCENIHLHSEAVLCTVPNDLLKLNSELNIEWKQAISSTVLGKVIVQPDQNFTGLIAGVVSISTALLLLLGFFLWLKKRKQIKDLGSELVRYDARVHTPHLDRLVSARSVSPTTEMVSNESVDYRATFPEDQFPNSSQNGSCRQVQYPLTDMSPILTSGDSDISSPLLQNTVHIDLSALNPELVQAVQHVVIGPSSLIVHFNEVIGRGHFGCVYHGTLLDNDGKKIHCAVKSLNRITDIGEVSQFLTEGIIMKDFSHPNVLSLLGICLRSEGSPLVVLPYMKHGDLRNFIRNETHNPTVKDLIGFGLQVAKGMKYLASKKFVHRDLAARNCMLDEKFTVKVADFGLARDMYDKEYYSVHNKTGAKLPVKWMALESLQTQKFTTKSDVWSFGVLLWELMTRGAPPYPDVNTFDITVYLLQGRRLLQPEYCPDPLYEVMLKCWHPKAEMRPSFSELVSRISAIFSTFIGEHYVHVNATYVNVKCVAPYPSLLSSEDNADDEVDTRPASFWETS
Description: as §1, §2, §3

[3] = test system: U-87 MG xenograft tumor; assay: In vivo anti-tumor efficacy against U-87MG tumor xenograft model; design: species or system Balb/c nude mice
Description: In Vivo Anti-Tumor Efficacy of Compound 1 of EXAMPLE 1 Against U-87MG Tumor Xenograft Model
Balb/c nude mice (6 weeks old, male) were purchased from Shanghai Slac Laboratory Animal Co. Ltd (Shanghai, China). All mice were maintained in a pathogen-free facility for ˜2 weeks before implantation. They were housed in plastic cages (4˜6 mice/cage) containing corn cob and maintained in a pathogen-free facility (20˜25° C., 30˜70% humidity) with a 12-h light:dark cycle.
U-87 MG xenograft model was established by implanting athymic Balb/c nude mice s.c in the right flank with U-87 MG cells, 3.6×10^6/mouse (120 ul). Tumors were allowed to reach 120˜380 mm^3 in size.
Tumor volumes were measured twice a week with caliper. Tumor volumes were calculated by the formula <Tumor volume=length×width^2/2>.
Percentage of tumor growth inhibition (GI) after initiation of treatment was calculated by the formula: GI=100×{1−[(tumor volumefinal−tumor volumeinitial for the compound-treated group)/(tumor volumefinal−tumor volumeinitial for the vehicle-treated group)]} Relative tumor volume is defined as the ratio of the volume at a given time and the volume at the start of treatment. The relative tumor volume (RTV) was calculated by the formula: RTV=100×TVT/TV0

[4] = 25 mg/kg ig BID, d28 post implantation
[5] = 25 mg/kg ig BID, d31 post implantation
[6] = 50 mg/kg ig BID, d28 post implantation
[7] = 50 mg/kg ig BID, d31 post implantation

## CC(Oc1cc(C(=O)Nc2ccc(=O)[nH]c2)nnc1N)c1c(Cl)ccc(F)c1Cl (racemic) [Example 5, {6-amino-5-[(2,6-dichloro-3-fluorophenyl)ethoxy]pyridazin-3-yl}-N-(6-oxo-1,6-dihydro-pyridin-3-yl)carboxamide]
[1]
  IC50: > 10 nM
[2]
  IC50: < 5 nM

## COCCn1cc(NC(=O)c2cc(OC(C)c3c(Cl)ccc(F)c3Cl)c(N)nn2)ccc1=O (racemic) [Example 6, {6-amino-5-[(2,6-dichloro-3-fluorophenyl)ethoxy]pyridazin-3-yl}-N-[1-(2-methoxyethyl)-6-oxo-1,6-dihydro-pyridin-3-yl]carboxamide]
[1]
  IC50: > 10 nM
[2]
  IC50: < 5 nM

## CC(Oc1cc(C(=O)NC2CCC(=O)N(C)C2)nnc1N)c1c(Cl)ccc(F)c1Cl (centres unmarked) [Example 4]
[1]
  IC50: > 100 nM
[2]
  IC50: > 100 nM

## C[C@@H](Oc1cc(C(=O)Nc2ccc(C(=O)N3CCN(C)CC3)cc2)nnc1N)c1c(Cl)ccc(F)c1Cl [reference compound]
[1]
  IC50: < 5 nM
[2]
  IC50: < 5 nM

## C[C@@H](Oc1cc(C(=O)Nc2ccc(=O)n(C)c2)nnc1N)c1c(Cl)ccc(F)c1Cl [Example 1, {5-[(1R)-1-(2,6-dichloro-3-fluorophenyl)ethoxy]-6-aminopyridazin-3-yl}-N-(1-methyl-6-oxo-1,6-dihydro-pyridin-3-yl)carboxamide]
[1]
  IC50: > 10 nM
[2]
  IC50: < 5 nM
[3]; 25 mg/kg ig BID, d24 post implantation (start of treatment)
  tumor volume (mean ± S.E): 230.4 ± 23.0 mm^3
[3]; [4]
  tumor growth inhibition GI: 62.14%
  tumor volume (mean ± S.E): 365.7 ± 29.3** mm^3
[3]; [5]
  tumor growth inhibition GI: 77.04%
  tumor volume (mean ± S.E): 453.7 ± 19.7** mm^3
[3]; 25 mg/kg ig BID, d35 post implantation
  tumor volume (mean ± S.E): 627.7 ± 33.9** mm^3
[3]; 25 mg/kg ig BID, d35 post implantation (after 11 days of treatment)
  tumor growth inhibition GI: 65.95%
[3]; 50 mg/kg ig BID, d24 post implantation (start of treatment)
  tumor volume (mean ± S.E): 230.2 ± 24.5 mm^3
[3]; [6]
  tumor growth inhibition GI: 78.82%
  tumor volume (mean ± S.E): 305.9 ± 22.0** mm^3
[3]; [7]
  tumor growth inhibition GI: 85.52%
  tumor volume (mean ± S.E): 337.4 ± 27.8** mm^3
[3]; 50 mg/kg ig BID, d35 post implantation
  tumor volume (mean ± S.E): 371.5 ± 34.4** mm^3
[3]; 50 mg/kg ig BID, d35 post implantation (after 11 days of treatment)
  tumor growth inhibition GI: 88.71%

## CCn1cc(NC(=O)c2cc(OC(C)c3c(Cl)ccc(F)c3Cl)c(N)nn2)ccc1=O (racemic) [Example 7, {6-amino-5-[(2,6-dichloro-3-fluorophenyl)ethoxy]pyridazin-3-yl}-N-(1-ethyl-6-oxo-1,6-dihydro-pyridin-3-yl)carboxamide]
[1]
  IC50: > 10 nM
[2]
  IC50: < 5 nM
